Results on one compound are retold here after ChEMBL document CHEMBL5038665, “Identification of the Benzoimidazole Compound as a Selective FLT3 Inhibitor by Cell-Based High-Throughput Screening of a Diversity Library” (J Med Chem, 2022).

Molecules are shown by their SMILES. The source made the active and inactive calls. No cut-off for these calls is given here.

The target in this experiment is T1, Receptor-type tyrosine-protein kinase FLT3 (Mus musculus) (UniProt Q00342).
T1 sequence (whole entry): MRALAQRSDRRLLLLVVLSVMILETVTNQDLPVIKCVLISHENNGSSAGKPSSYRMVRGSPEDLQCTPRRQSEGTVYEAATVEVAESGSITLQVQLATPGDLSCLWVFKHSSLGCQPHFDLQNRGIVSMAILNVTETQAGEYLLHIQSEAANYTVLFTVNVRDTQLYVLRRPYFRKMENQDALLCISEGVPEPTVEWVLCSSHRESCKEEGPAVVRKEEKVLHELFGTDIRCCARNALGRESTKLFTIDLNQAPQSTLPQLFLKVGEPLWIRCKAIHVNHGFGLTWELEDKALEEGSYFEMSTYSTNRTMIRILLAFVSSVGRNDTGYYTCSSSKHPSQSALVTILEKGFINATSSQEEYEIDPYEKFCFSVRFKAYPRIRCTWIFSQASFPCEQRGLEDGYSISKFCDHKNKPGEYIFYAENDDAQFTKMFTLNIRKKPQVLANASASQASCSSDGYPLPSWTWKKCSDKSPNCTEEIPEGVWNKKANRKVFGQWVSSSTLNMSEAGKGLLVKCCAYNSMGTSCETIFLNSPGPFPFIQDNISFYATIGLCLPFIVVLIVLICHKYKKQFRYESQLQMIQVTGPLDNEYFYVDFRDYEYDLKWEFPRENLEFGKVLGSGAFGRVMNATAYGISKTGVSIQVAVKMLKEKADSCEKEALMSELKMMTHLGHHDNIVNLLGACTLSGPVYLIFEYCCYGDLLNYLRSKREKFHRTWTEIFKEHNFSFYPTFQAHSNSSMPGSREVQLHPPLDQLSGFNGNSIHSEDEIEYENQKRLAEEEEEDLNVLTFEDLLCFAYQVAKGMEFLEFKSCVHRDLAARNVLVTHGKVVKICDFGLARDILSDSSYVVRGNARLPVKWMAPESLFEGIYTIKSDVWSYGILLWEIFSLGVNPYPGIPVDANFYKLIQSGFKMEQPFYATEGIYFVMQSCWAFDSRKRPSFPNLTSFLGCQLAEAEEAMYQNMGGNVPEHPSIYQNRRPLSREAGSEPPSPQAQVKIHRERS
Nature of the experiment: Inhibition of FLT3-mediated signalling pathway in mouse Ba/F3 FLT3-ITD cells assessed as inhibition of STAT5 phosphorylation at 1 to 900 nM measured after 12 hrs by western blot analysis. To be noted: dose 1-900 nM. In kind it is cell-based. (In general: In western blotting, separated proteins are transferred to a membrane and probed.)

Regarding `COc1cc(CNc2ccc3c(c2)ncn3-c2ccccc2)ccc1OCCO`, the inhibition entry was “Active”.
